{
  "source": "patent US5153352A",
  "about": "“Process for preparation of intermediates of carbocyclic nucleoside analogs” (priority 1990, dated 1992)",
  "key": {"[1]": {"tested_on": "Human Immunodificiency Virus (HIV-1)", "test": "HIV-1 antigen inhibition in H9 cells", "type": "cell-based, HIV-1 (HTLV-IIIB)", "conditions": "Human immunodeficiency virus 1, HIV-1, H9 cells; for IC50: HIV antigen levels", "experimental": "Uninfected H9 cells at 4×10^5 viable cells/ml were infected with approximately 100 viral infectious units (ifu) for 2 hrs at 37° C. The viral infectious dose (ifu) was determined by the tissue culture infectious dose (TCID50) method for each stock of HIV-1 (HTLV-IIIB) and HIV-2. Cells were washed three times to remove residual virus, then resuspended in RPMI-1640 growth medium containing test compound at various concentrations, then transferred to 24 well tissue culture plates and grown at 5% CO2 at 37° C. Infected cells in media containing no drug were run simultaneously as a control. Aliquots of culture supernatants were removed at 4, 6 and 10 days and monitored for HIV antigen levels by the Abbott HIV 1 antigen enzyme immunoassay (HIVAG-1). Cell viability was also determined at these time points and cells were refed with media containing test compound (except for control wells). Anti-HIV activity is reported as the concentration of compound causing a 50% inhibition (IC50) in HIV antigen levels versus infected cells without test compound."}, "[2]": {"tested_on": "Human Cytomegalovirus (HCMV)", "test": "HCMV virus yield reduction assay in MRC5 cells", "type": "cell-based, Human cytomegalovirus (strain AD169)", "experimental": "(§1) Human diploid embryonic lung (MRC5) cells were grown in 35 mm wells of 6-well tissue culture plates. Subconfluent cell monolayers were rinsed with phosphate buffered saline (PBS) and were exposed to 0.5 ml/well of HCMV (strain AD169) suspension for 1.5 hours at 37° C. The virus suspension was diluted in MEM+2% fetal bovine serum (FBS) to yield a multiplicity of infection (MOI) of approximately 0.1 plaque forming units (PFU)/cell. Following the virus adsorption period, the inocula were removed and infected cell layers were rinsed with PBS. Aliquots (2.0 ml) of each test drug concentration (dissolved in MEM supplemented with 2% FBS) were dispensed into triplicate cell cultures: two virus infected cultures and one uninfected cytotoxicity control culture (exposed to medium without virus for 1.5 hours). Untreated virus infected control cultures and untreated, uninfected cell control cultures were fed with medium alone.\n(§2) All cell culture fluids were replaced with fresh drug and medium 48 hours postinfection (p.i.).\nOn Day 6 p.i., the cell layers were examined microscopically for cytopathogenic effect (CPE) and drug cytotoxicity. The test and virus control cultures were then harvested by subjecting the cell layers to one cycle of freeze-thawing.\nThe harvested test and virus control samples were thawed and the infectious virus yield was determined by plaque assay in MRC5 cells grown in 12-well cluster plates. Inhibition of HCMV replication by each test compound was determined by comparing the progeny virus yields in the drug-treated cultures with the progeny virus yield in the untreated, virus infected control cultures."}, "[3]": {"tested_on": "Human Immunodeficiency Virus (HIV-2)", "test": "anti-HIV-2 protection of ATH8 cells (method of Mitsuya and Broder)", "type": "cell-based", "conditions": "ATH-8, HIV-2, ATH8 cells, read-out: Protective Effect", "source_text": "The method of Mitsuya and Broder (AIDS: Modern Concepts and Therapeutic Challenges; Broder, S. ED.; Marcel Dekker, Inc.; New York, 1987; Chapter 18) was used to determine the in vitro anti-HIV-1 and anti-HIV-2 activity in ATH8 cells of some compounds of the invention. The results of the test are expressed as the percentage of ATH8 cells that were protected from the cytopathogenic effects of HIV at various concentrations of the compound of the invention."}, "[4]": {"test": "MTT cytotoxicity assay in MRC5 cells", "type": "cell-based", "conditions": "human", "experimental": "as §1, §2\nDrug cytotoxicity was determined quantitatively by a method based on the reduction of the tetrazolium salt, 3-(4,5-dimethyl-thiazol-2-yl)-2,5-diphenyl tetrazolium bromide (MTT) by mitochondrial enzymes of viable host cells to MTT formazan (T. Mosmann, 1983). Drug cytotoxicity controls and cell controls were treated with MTT (dissolved in culture medium) followed by 20% SDS (in 0.02 N HCl) to dissolve the crystals of MTT formazan. The blue color of the MTT formazan was measured spectrophotometrically at 570 nm. Drug cytotoxicity was determined by comparing the absorbance (O.D.) of each drug cytotoxicity control with the mean O.D. of the cell control cultures and expressed as percent of control."}, "[5]": {"test": "cytotoxicity in uninfected PHA-stimulated human PBM cells", "type": "cell-based", "conditions": "uninfected PBMC, 6 days, read-out: Cytotoxicity in PBMC IC50", "experimental": "Human peripheral blood mononuclear cells (PBMC) from healthy HIV-1 seronegative and hepatitis B virus seroneqative donors were isolated by Ficoll-Hypague discontinuous gradient centrifugation at 1,000×g for 30 minutes, washed twice in phosphate buffered saline (pH 7.2; PBS), and pelleted at 300×g for 10 minutes. Before infection, the cells were stimulated by phytohemagglutinin (PHA) at a concentration of 16.7 ug/ml for three days in RPMI 1640 medium supplemented with 15% heat-inactivated fetal calf serum, 1.5 mM L-glutamine, penicillin (100 U/ml), streptomycin (100 ug/ml) and 4 mM sodium bicarbonate buffer.\nThe test compounds were evaluated for their potential toxic effects on uninfected PHA-stimulated human PBM cells. The cells were cultured with and without test compound for 6 days at which time aliquots were counted for cell viability."}, "in vitro": {"test": "in vitro", "conditions": "monkey, vero cells, MTC (minimum drug concentration causing any cytotoxicity)"}, "Vero cells": {"tested_on": "Vero cells", "conditions": "monkey"}, "[6]": {"conditions": "Human betaherpesvirus 5, 144 h, 1.0 ug/ml"}, "[7]": {"conditions": "Human betaherpesvirus 5, 144 h, 3.2 ug/ml"}, "[8]": {"conditions": "Human betaherpesvirus 5, 144 h, 10 ug/ml"}, "[9]": {"conditions": "Human betaherpesvirus 5, 144 h, 32 ug/ml"}},
  "data": [
    {"smiles": "Nc1ncnc2c1ncn2C1CC(CO)C1CO", "note": "(centres unmarked) [Example 4C, 9-(2',3'-Bis(hydroxymethyl)cyclobutyl)adenine]", "values": [
      {"measurement": "inhibition at 0.625 µM", "setting": "[1]", "value": 0, "unit": "%"},
      {"measurement": "inhibition at 2.5 µM", "setting": "[1]", "value": 62, "unit": "%"},
      {"measurement": "inhibition at 5 µM", "setting": "[1]; 5 uM", "value": 96, "unit": "%"},
      {"measurement": "inhibition at 10 µM", "setting": "[1]", "value": 98, "unit": "%"},
      {"measurement": "IC50", "setting": "[1]", "value": 2.1, "unit": "µM"},
      {"measurement": "HCMV yield", "setting": "[2]; 0.32 ug/ml", "value": 3.3, "unit": "log10 PFU/ml"},
      {"measurement": "HCMV yield", "setting": "[2]; 1.0 ug/ml", "value": 2.6, "unit": "log10 PFU/ml"},
      {"measurement": "HCMV yield", "setting": "[2]; 3.2 ug/ml", "value": "< 0.6", "unit": "log10 PFU/ml"},
      {"measurement": "HCMV yield", "setting": "[2]; 10 ug/ml", "value": "< 0.6", "unit": "log10 PFU/ml"},
      {"measurement": "HCMV yield", "setting": "[2]; 32 ug/ml", "value": "< 0.6", "unit": "log10 PFU/ml"},
      {"measurement": "log reduction at 0.32 µg/mL", "setting": "[2]; Human betaherpesvirus 5, 144 h, 0.32 ug/ml", "value": 1.4},
      {"measurement": "log reduction at 1 µg/mL", "setting": "[2]; [6]", "value": 2.1},
      {"measurement": "log reduction at 3.2 µg/mL", "setting": "[2]; [7]", "value": "> 4.1"},
      {"measurement": "log reduction at 10 µg/mL", "setting": "[2]; [8]", "value": "> 4.1"},
      {"measurement": "log reduction at 32 µg/mL", "setting": "[2]; [9]", "value": "> 4.1"},
      {"measurement": "inhibition at 1 µM", "setting": "[3]", "value": 33, "unit": "%"},
      {"measurement": "inhibition at 10 µM", "setting": "[3]", "value": 70, "unit": "%"},
      {"measurement": "viability", "setting": "[4]; 3.2 ug/ml", "value": 95, "unit": "%"},
      {"measurement": "viability", "setting": "[4]; 10 ug/ml", "value": 90, "unit": "%"},
      {"measurement": "viability", "setting": "[4]; 32 ug/ml", "value": 67, "unit": "%"},
      {"measurement": "CC50 at 144 h", "setting": "[5]", "value": 23, "unit": "µM"}
    ]},
    {"smiles": "Nc1nc2c(ncn2C2CC(CO)C2CO)c(=O)[nH]1", "note": "(centres unmarked) [Example 1I, 9-(2',3'-Bis(hydroxymethyl)cyclobutyl)guanine]", "values": [
      {"measurement": "MCC", "setting": "in vitro", "value": 320, "unit": "µg/mL"},
      {"measurement": "inhibition at 0.312 µM", "setting": "[1]; 0.312 uM", "value": 0, "unit": "%"},
      {"measurement": "inhibition at 0.625 µM", "setting": "[1]", "value": 19, "unit": "%"},
      {"measurement": "inhibition at 1.25 µM", "setting": "[1]; 1.25 uM", "value": 63, "unit": "%"},
      {"measurement": "inhibition at 2.5 µM", "setting": "[1]", "value": 75, "unit": "%"},
      {"measurement": "inhibition at 10 µM", "setting": "[1]", "value": 88, "unit": "%"},
      {"measurement": "IC50", "setting": "[1]", "value": 1.1, "unit": "µM"},
      {"measurement": "HCMV yield", "setting": "[2]; 1.0 ug/ml", "value": 3.12, "unit": "log10 PFU/ml"},
      {"measurement": "HCMV yield", "setting": "[2]; 3.2 ug/ml", "value": 2.43, "unit": "log10 PFU/ml"},
      {"measurement": "HCMV yield", "setting": "[2]; 10 ug/ml", "value": 1.63, "unit": "log10 PFU/ml"},
      {"measurement": "HCMV yield", "setting": "[2]; 32 ug/ml", "value": "< 0.6", "unit": "log10 PFU/ml"},
      {"measurement": "log reduction at 1 µg/mL", "setting": "[2]; [6]", "value": 1.15},
      {"measurement": "log reduction at 3.2 µg/mL", "setting": "[2]; [7]", "value": 1.84},
      {"measurement": "log reduction at 10 µg/mL", "setting": "[2]; [8]", "value": 2.64},
      {"measurement": "log reduction at 32 µg/mL", "setting": "[2]; [9]", "value": "> 3.7"},
      {"measurement": "MTC (minimum drug concentration causing any cytotoxicity)", "setting": "Vero cells", "value": 320, "unit": "µg/mL"},
      {"measurement": "inhibition at 1 µM", "setting": "[3]", "value": 24, "unit": "%"},
      {"measurement": "inhibition at 10 µM", "setting": "[3]", "value": 65, "unit": "%"},
      {"measurement": "viability", "setting": "[4]; 1.0 ug/ml", "value": 100, "unit": "%"},
      {"measurement": "viability", "setting": "[4]; 3.2 ug/ml", "value": 100, "unit": "%"},
      {"measurement": "viability", "setting": "[4]; 10 ug/ml", "value": 100, "unit": "%"},
      {"measurement": "viability", "setting": "[4]; 32 ug/ml", "value": 100, "unit": "%"},
      {"measurement": "CC50 at 144 h", "setting": "[5]", "value": 38.8, "unit": "µM"}
    ]}
  ]
}
